These results are taken from patent publication US20110045101A1, “FUNGICIDAL SUBSTITUTED AZOLES” (E.I. Du Pont De Nemours and Company, priority 2009, published 2011).

What all share (assay type): in vivo
Common to all, as to settings: 200 ppm, 100 = 100% disease control, 0 = no control relative to controls

One assay deals with Botrytis cinerea. Nature of the assay: Test C: tomato Botrytis on tomato seedlings, sprayed the day before inoculation, visual disease rating. In outline: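 Disease ratings refer to tomato seedlings treated by run-off spraying with compound suspensions, mostly 200 ppm (500 g/ha equivalent) and in marked cases 40 ppm. Carrier: acetone/purified water 50/50 with 250 ppm polyhydric alcohol ester surfactant, after predissolving in acetone.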

For another assay, the system named is Alternaria solani. The experiment in a line: Test D: tomato early blight, sprayed the day before inoculation, visual disease rating. The method, boiled down: (§1)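 Acetone solution (3% of final volume) of each compound is suspended in 50/50 acetone/water with 250 ppm Trem® 014. Plants are sprayed to run-off at 200 ppm, equivalent to 500 g/ha, or at 40 ppm for starred values.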

The test system of another assay is Septoria nodorum. Nature of the assay: Test F: wheat glume blotch on wheat seedlings, sprayed the day before inoculation, visual disease rating. The method, boiled down:
as §1

The test system of another assay is Septoria tritici. The experiment in a line: Test G: wheat leaf blotch on wheat seedlings, sprayed the day before inoculation, visual disease rating. In outline: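 Visual disease ratings taken 19 days after transfer to a 20° C growth chamber, following 48 h in saturated atmosphere at 24° C. Seedlings had been sprayed to run-off one day before spore inoculation. Dose 200 ppm, or 40 ppm where starred.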

Assay [1] relates to Puccinia recondita f. sp. tritici. Nature of the assay: Test H: wheat leaf rust, test suspension sprayed after inoculation of wheat seedlings, visual disease rating. The method, boiled down: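 Wheat seedlings inoculated with P. recondita spores, held 24 h saturated at 20 °C, then 2 days in growth chamber at 20 °C; compound suspension (acetone/water with Trem 014) sprayed to run-off afterwards. Rated visually; 200 ppm (≈500 g/ha) unless marked *, which denotes 40 ppm.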

For assay [2] the test system is unchanged. The experiment in a line: Test I: wheat leaf rust on wheat seedlings, sprayed the day before inoculation, visual disease rating. In outline:
as §1

Assay [3] has as its system Erysiphe graminis f. sp. tritici. Nature of the assay: Test J: wheat powdery mildew on wheat seedlings, sprayed the day before inoculation, visual disease rating. In outline:
as §1

On to `Cc1nc(Br)c(Cc2c(F)cc(F)cc2F)n1-c1cc(Cl)cc(Cl)c1` [compound 541], for which, in the assay with Botrytis cinerea, the “Test C disease control rating” value is 0%. For the same compound, the “Test D disease control rating” value in the assay with Alternaria solani is recorded as 0%. Further, the “Test F disease control rating” value in the assay on Septoria nodorum was 0%. Besides, the “Test G disease control rating” value in the assay with Septoria tritici turned out to be 0%. For the same compound, the “Test H disease control rating” value in assay [1] was 0%. For the same compound, the “Test I disease control rating” value in assay [2] is reported as 0%. For the same compound, the “Test J disease control rating” value in assay [3] came to 0%.
For `Fc1ccc(-n2c(Br)nc(Br)c2-c2ccc(Cl)c(F)c2)c(Cl)c1` [compound 301], the “Test C disease control rating” value with Botrytis cinerea stood at 100%. Also, the “Test D disease control rating” value in the assay with Alternaria solani is listed as 94%. Besides, the “Test F disease control rating” value in the assay on Septoria nodorum is listed as 0%. Also, the “Test G disease control rating” value in the assay with Septoria tritici was 95%. Moreover, the “Test H disease control rating” value in assay [1] is reported as 6%. The “Test I disease control rating” value in assay [2] stood at 91%. Besides, the “Test J disease control rating” value in assay [3] was 96%.
Take `COc1cc(F)c(-c2c(Cl)nc(Br)n2Cc2ccc(Cl)nc2)c(F)c1` [compound 670]: the “Test C disease control rating” value in the assay on Botrytis cinerea is 100%. In addition, in the assay with Alternaria solani, the “Test D disease control rating” value is recorded as 100%. Besides, in the assay with Septoria nodorum, the “Test F disease control rating” value came out at 100%. Further, the “Test G disease control rating” value with Septoria tritici came to 98%. The “Test H disease control rating” value in assay [1] was 0%. The “Test I disease control rating” value in assay [2] is given as 98%. In addition, the “Test J disease control rating” value in assay [3] came to 94%.
With `O=C(O)Cc1nc(Br)c(-c2c(F)cccc2F)n1-c1ccc(Cl)cc1` [Compound 570, 4-bromo-1-(4-chlorophenyl)-5-(2,6-difluorophenyl)-1H-imidazole-2-acetic acid], the pest or weed control (usually the degree to which the test organism was suppressed or injured, in per cent) at 200 ppm in the assay with Botrytis cinerea (Botrytis cinerea, 120 h) is 0%; in the assay on Alternaria solani (Alternaria solani, 168 h), 0%; in the assay with Septoria nodorum (Parastagonospora nodorum, 264 h) it was 0%; in the assay with Septoria tritici (Zymoseptoria tritici, 504 h), 97%; in assay [1] (Puccinia recondita, 96 h), 0%; in assay [2] (Puccinia recondita, 168 h), 13%. The pest or weed control at 200 ppm in assay [3] (Blumeria graminis, 168 h) was determined as 69%.
With `COc1ccc(F)c(-c2c(Cl)nc(Cl)n2-c2ccc(Cl)cc2)c1F` [compound 309], the “Test C disease control rating” value in the assay on Botrytis cinerea came out at 100%. In the assay on Alternaria solani, the “Test D disease control rating” value is on record as 100%. Further, the “Test F disease control rating” value in the assay on Septoria nodorum is recorded as 100%. Moreover, the “Test G disease control rating” value with Septoria tritici is 97%. For the same compound, the “Test H disease control rating” value in assay [1] came to 11%. The “Test I disease control rating” value in assay [2] came out at 100%. For the same compound, the “Test J disease control rating” value in assay [3] stood at 100%.
For the compound `COc1cc(OC)cc(-n2c(C)nc(Cl)c2Cc2c(F)cc(F)cc2F)c1` [compound 534], in the assay with Botrytis cinerea, the “Test C disease control rating” value amounted to 38%. Besides, in the assay with Alternaria solani, the “Test D disease control rating” value is reported as 0%. The “Test F disease control rating” value in the assay with Septoria nodorum stood at 0%. The “Test G disease control rating” value in the assay on Septoria tritici was found to be 2%. For the same compound, the “Test H disease control rating” value in assay [1] was determined as 0%. The “Test I disease control rating” value in assay [2] was 0%. For the same compound, the “Test J disease control rating” value in assay [3] was 0%.
For the compound `COc1cc(OC)cc(-n2c(Cc3c(F)cc(F)cc3F)cnc2C)c1` [compound 533], in the assay with Botrytis cinerea, the “Test C disease control rating” value worked out at 0%. The “Test D disease control rating” value in the assay with Alternaria solani is 0%. In the assay with Septoria nodorum, the “Test F disease control rating” value turned out to be 0%. The “Test G disease control rating” value in the assay on Septoria tritici is on record as 49%. The “Test H disease control rating” value in assay [1] was found to be 15%. Further, in assay [2], the “Test I disease control rating” value was found to be 92%. Moreover, the “Test J disease control rating” value in assay [3] amounted to 82%.
For `COc1cc(F)c(-c2c(Cl)nc(Cl)n2-c2cccnc2Cl)c(F)c1` [compound 513], the “Test C disease control rating” value in the assay with Botrytis cinerea amounted to 99%. Further, the “Test D disease control rating” value with Alternaria solani is reported as 100%. Besides, the “Test F disease control rating” value with Septoria nodorum worked out at 100%. In addition, the “Test G disease control rating” value with Septoria tritici amounted to 100%. In assay [1], the “Test H disease control rating” value turned out to be 100%. In addition, the “Test I disease control rating” value in assay [2] was 100%. Also, in assay [3], the “Test J disease control rating” value stood at 100%.
